Reference: patent publication US20070232556A1, “Methods and compositions for the treatment of neurological diseases and disorders” (priority 2006, published 2007)

What was measured:
[1] = system: wt microglia; assay: Microglial phagocytosis of aggregated fluorescein-labeled Aβ1-42 (flow cytometry), wt microglia; assay type: cell-based, mouse; conditions: for Aβ1-42 uptake (percent of wt controls): n=6
Method: (§1) Microglial Aβ phagocytosis. At DIV 14, microglia were seeded in 6-well plates at 1.5×10^5 cells per well in microglial culture medium. After 2hr seeding, medium was changed with 1.5 ml of serum-free DMEM medium containing penicillin and streptomycin. To make aggregated Aβ for phagocytosis, Aβ was dissolved in 2 mM NaOH and was diluted into 10 μM of stock solution (100×) in PBS followed by incubation at 37° C. for 2 hr and monitored by turbidity. For studying signaling pathways involved in Aβ phagocytosis, some microglia were pre-treated for 1 hr with AH6809 (20 μM), butaprost ([…]), SC51089 (10 μM), PTPE2 (20 μM), forskolin (50 μM), or BIM (10 μM) prior to treatment with aggregated fluorescein labeled AP1-42 (100 nM). After 24hr incubation of Aβ, cells were washed with PBS followed by trypsinization (0.05%) and centrifugation. Cells were then re-suspended in PBS and subjected to flow cytometry. Flow cytometer (FACScan, BD Biosciences, San Jose, Calif.) set at un-gated 10,000 cells per measure was used to analyze Aβ uptake as an indication of Aβ phagocytosis. Data were analyzed using Summit Mo-Flo software (Cytomation, Fort Collins, Colo.). Phagocytosis was presented as percent of mean FITC intensity in wt controls treated with Aβ. Some cells were plated onto chambered slides at 1×10^4 for assessing cellular uptake of Aβ using fluorescent microscope (Nikon TE200).

[2] = system: EP2^−/− microglia; assay: Microglial phagocytosis of aggregated fluorescein-labeled Aβ1-42 (flow cytometry), EP2−/− microglia; assay type: cell-based, mouse
Method: as §1

[3] = BIM at 10 μM, 1 hr pre-treatment, 100 nM fluorescein-Aβ1-42, 24 hr

`O=S(=O)(NCCNC/C=C/c1ccc(Br)cc1)c1cccc2cnccc12` [H89] was tested, and the “Effect on Aβ1-42 uptake” value ([1]; PKA inhibitor) was “did not enhanced Aβ1-42 uptake”.
For `CCCC1([C@H](O)C/C=C/[C@H]2[C@H](O)CC(=O)[C@@H]2CCCCCCC(=O)OC)CCC1` [butaprost], the “Aβ1-42 uptake (percent of wt controls)” value ([1]; 1 μM) was 98±3%, the “Aβ1-42 uptake (percent of wt controls)” value ([1]; 10 μM) was 104±2% and the “Aβ1-42 uptake (percent of wt controls)” value ([1]; 50 μM) was 92±2%.
`O=C(O)CCC/C=C\C[C@H]1C(=O)C[C@@H](O)[C@@H]1/C=C/[C@@H](O)CCc1ccccc1` [PTPE2, 17-phenyl trinor prostaglandin E2] was tested, and the “Effect on Aβ1-42 phagocytosis” value ([1]; PTPE2 at 20 μM) was “without effect” and the “Effect on Aβ1-42 phagocytosis” value ([2]; PTPE2 at 20 μM) was “without effect”.
For bisindolylmaleimide [BIM], the “Aβ1-42 uptake, % of wt basal Aβ1-42 uptake” value [1, 3] was 36±4% and the “Aβ1-42 uptake, % of wt basal Aβ1-42 uptake” value [2, 3] was 35±4%.
In the case of SC51089, the “Effect on Aβ1-42 phagocytosis” value ([1]; SC51089 at 10 μM) is reported as “without effect” and the “Effect on Aβ1-42 phagocytosis” value ([2]; SC51089 at 10 μM) is reported as “without effect”.
